According to the kinase profiling compilation of Christmann-Franck et al. (2016):

Legend:
Experiment in all cases: radiometric filter-binding kinase assay
[1] = test system: AKT1 (human), P31749 [S473D]
AURKA (human) = AURKA (human) (UniProt O14965)
BRSK2 (human) = BRSK2 (human) (UniProt Q8IWQ3)
CHEK2 (human) = CHEK2 (human) (UniProt O96017)
CaMK1 (human) = CaMK1 (human) (UniProt Q14012)
DYRK1A (human) = DYRK1A (human) (UniProt Q13627)
DYRK2 (human) = DYRK2 (human) (UniProt Q92630)
EPHB2 (human) = EPHB2 (human) (UniProt P29323)
EPHB3 (human) = EPHB3 (human) (UniProt P54753)
ERBB4 (human) = ERBB4 (human) (UniProt Q15303)
HIPK2 (human) = HIPK2 (human) (UniProt Q9H2X6)
IKBKE (human) = IKBKE (human) (UniProt Q14164)
MAP2K6 (human) = MAP2K6 (human) (UniProt P52564)
MAP3K11 (human) = MAP3K11 (human) (UniProt Q16584)
Sequence of MAP3K11 (human) (Q16584 whole entry, looked up): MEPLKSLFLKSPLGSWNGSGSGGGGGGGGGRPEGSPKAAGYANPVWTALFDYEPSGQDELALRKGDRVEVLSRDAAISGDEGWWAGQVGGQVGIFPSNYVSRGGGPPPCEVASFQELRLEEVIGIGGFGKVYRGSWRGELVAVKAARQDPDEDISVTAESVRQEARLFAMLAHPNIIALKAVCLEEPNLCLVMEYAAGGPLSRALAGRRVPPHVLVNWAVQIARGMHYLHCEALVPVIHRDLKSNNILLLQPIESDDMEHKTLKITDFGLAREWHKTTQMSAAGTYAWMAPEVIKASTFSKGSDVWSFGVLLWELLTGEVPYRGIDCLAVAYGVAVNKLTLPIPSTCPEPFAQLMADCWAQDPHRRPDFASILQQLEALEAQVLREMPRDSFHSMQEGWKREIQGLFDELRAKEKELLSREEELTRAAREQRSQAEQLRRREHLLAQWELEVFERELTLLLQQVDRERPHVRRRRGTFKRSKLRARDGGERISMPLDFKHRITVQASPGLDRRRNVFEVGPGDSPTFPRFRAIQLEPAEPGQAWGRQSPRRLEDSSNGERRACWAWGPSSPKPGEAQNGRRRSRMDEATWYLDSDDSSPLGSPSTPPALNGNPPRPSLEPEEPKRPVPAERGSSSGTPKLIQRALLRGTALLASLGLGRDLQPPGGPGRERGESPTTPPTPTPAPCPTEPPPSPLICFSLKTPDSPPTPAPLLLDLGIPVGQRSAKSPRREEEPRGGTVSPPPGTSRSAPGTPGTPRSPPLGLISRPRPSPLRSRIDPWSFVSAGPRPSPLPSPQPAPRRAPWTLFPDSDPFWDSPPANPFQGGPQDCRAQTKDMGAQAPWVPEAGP

MAPK1 (human) = MAPK1 (human) (UniProt P28482)
MAPK10 (human) = MAPK10 (human) (UniProt P53779)
Sequence of MAPK10 (human) (P53779 whole entry, looked up): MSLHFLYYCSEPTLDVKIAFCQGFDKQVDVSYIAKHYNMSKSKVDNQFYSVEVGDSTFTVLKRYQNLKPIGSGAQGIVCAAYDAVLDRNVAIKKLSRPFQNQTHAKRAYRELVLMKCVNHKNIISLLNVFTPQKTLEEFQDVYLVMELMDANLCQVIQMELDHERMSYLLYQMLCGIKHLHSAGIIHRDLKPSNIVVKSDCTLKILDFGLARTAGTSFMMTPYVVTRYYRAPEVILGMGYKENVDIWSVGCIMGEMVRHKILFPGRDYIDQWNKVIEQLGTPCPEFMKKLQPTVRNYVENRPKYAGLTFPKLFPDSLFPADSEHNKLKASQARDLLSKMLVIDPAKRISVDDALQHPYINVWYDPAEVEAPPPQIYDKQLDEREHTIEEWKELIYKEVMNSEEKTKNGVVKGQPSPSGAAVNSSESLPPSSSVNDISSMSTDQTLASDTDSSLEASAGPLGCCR

MAPK12 (human) = MAPK12 (human) (UniProt P53778)
MAPK13 (human) = MAPK13 (human) (UniProt O15264)
Sequence of MAPK13 (human) (O15264 whole entry, looked up): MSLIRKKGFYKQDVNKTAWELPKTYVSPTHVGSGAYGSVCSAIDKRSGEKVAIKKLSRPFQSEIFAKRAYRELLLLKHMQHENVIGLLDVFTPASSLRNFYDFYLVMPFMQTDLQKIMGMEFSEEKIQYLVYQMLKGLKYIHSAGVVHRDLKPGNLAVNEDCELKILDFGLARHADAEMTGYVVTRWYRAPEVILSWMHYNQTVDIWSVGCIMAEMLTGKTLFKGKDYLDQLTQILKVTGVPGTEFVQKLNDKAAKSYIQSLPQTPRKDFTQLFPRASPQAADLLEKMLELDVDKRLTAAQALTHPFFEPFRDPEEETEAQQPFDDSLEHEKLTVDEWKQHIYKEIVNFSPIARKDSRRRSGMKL

MAPK3 (human) = MAPK3 (human) (UniProt P27361)
MAPK8 (human) = MAPK8 (human) (UniProt P45983)
Sequence of MAPK8 (human) (P45983 whole entry, looked up): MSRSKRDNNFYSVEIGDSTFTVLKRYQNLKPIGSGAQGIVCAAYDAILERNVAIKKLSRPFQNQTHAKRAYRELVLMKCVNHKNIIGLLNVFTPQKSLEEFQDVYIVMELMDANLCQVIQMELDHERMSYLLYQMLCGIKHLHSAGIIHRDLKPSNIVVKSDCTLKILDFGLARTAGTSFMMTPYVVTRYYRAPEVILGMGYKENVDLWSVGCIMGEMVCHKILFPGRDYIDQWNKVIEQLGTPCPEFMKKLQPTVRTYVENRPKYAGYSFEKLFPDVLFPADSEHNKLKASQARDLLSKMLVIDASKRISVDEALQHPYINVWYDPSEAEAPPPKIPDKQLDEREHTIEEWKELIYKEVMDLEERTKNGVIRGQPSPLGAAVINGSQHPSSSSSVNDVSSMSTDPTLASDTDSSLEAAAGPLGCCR

MAPKAPK3 (human) = MAPKAPK3 (human) (UniProt Q16644)
MARK2 (human) = MARK2 (human) (UniProt Q7KZI7)
MKNK1 (human) = MKNK1 (human) (UniProt Q9BUB5)
MST4 (human) = MST4 (human) (UniProt Q9P289)
NEK2 (human) = NEK2 (human) (UniProt P51955)
NUAK1 (human) = NUAK1 (human) (UniProt O60285)
PAK4 (human) = PAK4 (human) (UniProt O96013)
Sequence of PAK4 (human) (O96013 whole entry, looked up): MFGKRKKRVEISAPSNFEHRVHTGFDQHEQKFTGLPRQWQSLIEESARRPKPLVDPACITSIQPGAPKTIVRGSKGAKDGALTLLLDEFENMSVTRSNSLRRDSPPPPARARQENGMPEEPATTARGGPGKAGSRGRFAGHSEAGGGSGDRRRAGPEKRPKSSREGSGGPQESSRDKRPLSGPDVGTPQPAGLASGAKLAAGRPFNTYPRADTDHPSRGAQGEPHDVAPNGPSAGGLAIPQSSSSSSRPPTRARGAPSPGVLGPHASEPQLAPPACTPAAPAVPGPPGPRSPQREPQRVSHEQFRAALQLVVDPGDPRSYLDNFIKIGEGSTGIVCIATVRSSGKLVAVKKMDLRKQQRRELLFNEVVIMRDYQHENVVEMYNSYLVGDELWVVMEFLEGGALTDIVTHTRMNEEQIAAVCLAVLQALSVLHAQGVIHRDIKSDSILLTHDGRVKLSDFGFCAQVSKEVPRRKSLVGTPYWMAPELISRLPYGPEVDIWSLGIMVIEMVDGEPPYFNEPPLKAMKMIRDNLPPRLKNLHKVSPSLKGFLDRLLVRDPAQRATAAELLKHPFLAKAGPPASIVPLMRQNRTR

PAK7 (human) = PAK7 (human) (UniProt Q9P286)
Sequence of PAK7 (human) (Q9P286 whole entry, looked up): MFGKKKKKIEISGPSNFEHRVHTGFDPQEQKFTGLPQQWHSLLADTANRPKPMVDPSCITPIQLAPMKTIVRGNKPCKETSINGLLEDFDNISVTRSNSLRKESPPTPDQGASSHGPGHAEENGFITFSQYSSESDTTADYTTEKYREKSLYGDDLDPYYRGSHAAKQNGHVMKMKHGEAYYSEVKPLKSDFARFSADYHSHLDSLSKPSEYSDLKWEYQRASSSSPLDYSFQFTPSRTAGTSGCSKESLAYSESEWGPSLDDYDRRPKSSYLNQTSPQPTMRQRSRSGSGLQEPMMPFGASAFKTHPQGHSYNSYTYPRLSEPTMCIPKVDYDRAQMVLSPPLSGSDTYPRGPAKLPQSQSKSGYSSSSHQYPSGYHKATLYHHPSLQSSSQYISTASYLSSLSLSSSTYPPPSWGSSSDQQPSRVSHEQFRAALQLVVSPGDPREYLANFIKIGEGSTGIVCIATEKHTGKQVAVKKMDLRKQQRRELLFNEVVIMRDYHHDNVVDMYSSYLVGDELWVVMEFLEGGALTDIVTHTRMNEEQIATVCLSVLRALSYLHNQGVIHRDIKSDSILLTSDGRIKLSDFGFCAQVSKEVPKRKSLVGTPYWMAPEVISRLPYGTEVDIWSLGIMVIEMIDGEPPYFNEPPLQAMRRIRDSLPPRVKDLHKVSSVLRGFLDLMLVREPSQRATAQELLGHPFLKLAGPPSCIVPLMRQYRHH

PLK1 (human) = PLK1 (human) (UniProt P53350)
PRKAA1 or PRKAA2 (rat) = conditions: accession and sequence are those of the human protein
PRKACA (human) = PRKACA (human) (UniProt P17612)
PRKCA (human) = PRKCA (human) (UniProt P17252)
RPS6KA1 KD1 KD2 (human) = RPS6KA1 KD1 KD2 (human) (UniProt Q15418); conditions: compound 100.0 µM
[2] = test system: SGK1 (human), O00141 [S422D]
SYK (human) = SYK (human) (UniProt P43405)

Sequence of AKT1 (human), P31749 [S473D] (P31749 whole entry S473D, looked up): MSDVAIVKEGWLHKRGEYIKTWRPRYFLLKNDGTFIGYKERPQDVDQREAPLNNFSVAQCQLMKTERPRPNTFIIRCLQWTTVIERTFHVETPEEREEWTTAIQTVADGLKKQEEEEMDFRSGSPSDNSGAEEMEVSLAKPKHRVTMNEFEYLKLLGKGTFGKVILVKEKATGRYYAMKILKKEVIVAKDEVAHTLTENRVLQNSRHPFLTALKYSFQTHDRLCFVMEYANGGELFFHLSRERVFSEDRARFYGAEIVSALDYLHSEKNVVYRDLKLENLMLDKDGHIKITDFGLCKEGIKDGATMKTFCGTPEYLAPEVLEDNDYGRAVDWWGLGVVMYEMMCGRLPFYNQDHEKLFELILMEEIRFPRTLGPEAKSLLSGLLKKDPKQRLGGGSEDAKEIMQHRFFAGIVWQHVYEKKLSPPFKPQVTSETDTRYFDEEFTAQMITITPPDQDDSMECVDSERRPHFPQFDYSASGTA
Sequence of BRSK2 (human) (Q8IWQ3 whole entry, looked up): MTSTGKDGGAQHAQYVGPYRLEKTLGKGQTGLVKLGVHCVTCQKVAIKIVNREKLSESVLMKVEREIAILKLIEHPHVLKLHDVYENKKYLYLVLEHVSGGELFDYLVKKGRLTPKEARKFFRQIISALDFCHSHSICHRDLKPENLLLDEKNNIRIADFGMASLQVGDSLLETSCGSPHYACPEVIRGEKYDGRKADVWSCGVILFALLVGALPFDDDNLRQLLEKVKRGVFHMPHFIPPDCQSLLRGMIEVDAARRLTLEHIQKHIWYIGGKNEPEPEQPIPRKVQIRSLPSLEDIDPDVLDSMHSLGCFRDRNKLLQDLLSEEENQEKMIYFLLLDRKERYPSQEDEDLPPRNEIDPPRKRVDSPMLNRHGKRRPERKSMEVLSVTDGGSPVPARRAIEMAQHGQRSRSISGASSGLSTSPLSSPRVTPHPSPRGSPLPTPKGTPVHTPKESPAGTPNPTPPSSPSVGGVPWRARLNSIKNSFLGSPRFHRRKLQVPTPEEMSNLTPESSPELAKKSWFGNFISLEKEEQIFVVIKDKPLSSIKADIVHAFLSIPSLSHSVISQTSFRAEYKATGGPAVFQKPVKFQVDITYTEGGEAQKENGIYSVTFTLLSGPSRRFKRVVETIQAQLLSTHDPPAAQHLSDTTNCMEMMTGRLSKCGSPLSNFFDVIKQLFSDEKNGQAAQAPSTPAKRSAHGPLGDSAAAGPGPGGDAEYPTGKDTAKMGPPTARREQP
Sequence of CaMK1 (human) (Q14012 whole entry, looked up): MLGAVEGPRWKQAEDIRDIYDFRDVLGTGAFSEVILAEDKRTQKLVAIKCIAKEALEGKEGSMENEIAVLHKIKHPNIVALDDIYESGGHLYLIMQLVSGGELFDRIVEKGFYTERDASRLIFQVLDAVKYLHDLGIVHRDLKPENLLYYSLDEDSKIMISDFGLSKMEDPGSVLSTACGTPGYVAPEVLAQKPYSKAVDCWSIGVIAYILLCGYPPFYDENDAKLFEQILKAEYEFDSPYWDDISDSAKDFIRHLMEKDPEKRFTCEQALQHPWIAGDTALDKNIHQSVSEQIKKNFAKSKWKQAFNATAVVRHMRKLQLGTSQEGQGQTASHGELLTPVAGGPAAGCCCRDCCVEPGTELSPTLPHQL

In the case of `Cc1cc(N=Nc2cc(S(=O)(=O)O)c(C)cc2C)c(N)cc1O`, the residual activity ([1]; compound 100.0 µM) is reported as 108%, the residual activity (AURKA (human); compound 100.0 µM) is reported as 32% and the residual activity (BRSK2 (human); compound 100.0 µM) is reported as 46%. The residual activity (CHEK2 (human); compound 100.0 µM) was 100%, the residual activity (CaMK1 (human); compound 100.0 µM) was 45% and the residual activity (DYRK1A (human); compound 100.0 µM) was 113%. For the same compound, the residual activity (DYRK2 (human); compound 100.0 µM) was 78%, the residual activity (EPHB2 (human); compound 100.0 µM) was 96% and the residual activity (EPHB3 (human); compound 100.0 µM) was 48%. The residual activity (ERBB4 (human); compound 100.0 µM) was 99%, the residual activity (HIPK2 (human); compound 100.0 µM) was 42% and the residual activity (IKBKE (human); compound 100.0 µM) was 94%. For the same compound, the residual activity (MAP2K6 (human); compound 100.0 µM) was 113%, the residual activity (MAP3K11 (human); compound 100.0 µM) was 83% and the residual activity (MAPK1 (human); compound 100.0 µM) was 134%. For the same compound, the residual activity (MAPK10 (human); compound 100.0 µM) was 100%, the residual activity (MAPK12 (human); compound 100.0 µM) was 108% and the residual activity (MAPK13 (human); compound 100.0 µM) was 109%. For the same compound, the residual activity (MAPK3 (human); compound 100.0 µM) was 98%, the residual activity (MAPK8 (human); compound 100.0 µM) was 113% and the residual activity (MAPKAPK3 (human); compound 100.0 µM) was 62%. The residual activity (MARK2 (human); compound 100.0 µM) was 98%, the residual activity (MKNK1 (human); compound 100.0 µM) was 99% and the residual activity (MST4 (human); compound 100.0 µM) was 67%. It also gave a residual activity (NEK2 (human); compound 100.0 µM) of 118%, a residual activity (NUAK1 (human); compound 100.0 µM) of 44% and a residual activity (PAK4 (human); compound 100.0 µM) of 70%. It also gave a residual activity (PAK7 (human); compound 100.0 µM) of 87%, a residual activity (PLK1 (human); compound 100.0 µM) of 79% and a residual activity (PRKAA1 or PRKAA2 (rat); compound 100.0 µM) of 71%. For the same compound, the residual activity (PRKACA (human); compound 100.0 µM) was 90%, the residual activity (PRKCA (human); compound 100.0 µM) was 81% and the residual activity (RPS6KA1 KD1 KD2 (human)) was 99%. The residual activity ([2]; compound 100.0 µM) was 52% and the residual activity (SYK (human); compound 100.0 µM) was 103%.

Compound `CN(C)C/C=C/C(=O)Nc1cccc(C(=O)Nc2ccc(Nc3nccc(-c4cccnc4)n3)cc2)c1` has a residual activity ([1]; compound 0.1 µM) of 92%, a residual activity ([1]; compound 1.0 µM) of 104% and a residual activity (AURKA (human); compound 0.1 µM) of 107%. For the same compound, the residual activity (AURKA (human); compound 1.0 µM) was 97%, the residual activity (BRSK2 (human); compound 0.1 µM) was 82% and the residual activity (BRSK2 (human); compound 1.0 µM) was 76%. The residual activity (CHEK2 (human); compound 0.1 µM) was 89%, the residual activity (CHEK2 (human); compound 1.0 µM) was 73% and the residual activity (CaMK1 (human); compound 0.1 µM) was 87%. For the same compound, the residual activity (CaMK1 (human); compound 1.0 µM) was 92%, the residual activity (DYRK1A (human); compound 0.1 µM) was 97% and the residual activity (DYRK1A (human); compound 1.0 µM) was 85%. For the same compound, the residual activity (DYRK2 (human); compound 1.0 µM) was 56%, the residual activity (EPHB2 (human); compound 0.1 µM) was 101% and the residual activity (EPHB2 (human); compound 1.0 µM) was 103%. It also gave a residual activity (EPHB3 (human); compound 0.1 µM) of 101%, a residual activity (ERBB4 (human); compound 1.0 µM) of 106% and a residual activity (HIPK2 (human); compound 0.1 µM) of 85%. The residual activity (HIPK2 (human); compound 1.0 µM) was 46%, the residual activity (IKBKE (human); compound 0.1 µM) was 97% and the residual activity (IKBKE (human); compound 1.0 µM) was 98%. For the same compound, the residual activity (MAP2K6 (human); compound 0.1 µM) was 97%, the residual activity (MAP2K6 (human); compound 1.0 µM) was 91% and the residual activity (MAP3K11 (human); compound 0.1 µM) was 79%. For the same compound, the residual activity (MAP3K11 (human); compound 1.0 µM) was 59%, the residual activity (MAPK1 (human); compound 0.1 µM) was 99% and the residual activity (MAPK1 (human); compound 1.0 µM) was 114%. For the same compound, the residual activity (MAPK10 (human); compound 0.1 µM) was 15%, the residual activity (MAPK10 (human); compound 1.0 µM) was 16% and the residual activity (MAPK12 (human); compound 0.1 µM) was 90%. It also gave a residual activity (MAPK12 (human); compound 1.0 µM) of 103%, a residual activity (MAPK13 (human); compound 0.1 µM) of 106% and a residual activity (MAPK13 (human); compound 1.0 µM) of 100%. It also gave a residual activity (MAPK3 (human); compound 0.1 µM) of 110%, a residual activity (MAPK3 (human); compound 1.0 µM) of 109% and a residual activity (MAPK8 (human); compound 0.1 µM) of 9%. The residual activity (MAPK8 (human); compound 1.0 µM) was 4%, the residual activity (MAPKAPK3 (human); compound 0.1 µM) was 104% and the residual activity (MAPKAPK3 (human); compound 1.0 µM) was 101%. For the same compound, the residual activity (MARK2 (human); compound 0.1 µM) was 94%, the residual activity (MARK2 (human); compound 1.0 µM) was 85% and the residual activity (MKNK1 (human); compound 0.1 µM) was 84%. It also gave a residual activity (MST4 (human); compound 0.1 µM) of 98%, a residual activity (MST4 (human); compound 1.0 µM) of 104% and a residual activity (NEK2 (human); compound 0.1 µM) of 93%. It also gave a residual activity (NUAK1 (human); compound 0.1 µM) of 35%, a residual activity (NUAK1 (human); compound 1.0 µM) of 82% and a residual activity (PAK4 (human); compound 0.1 µM) of 84%. The residual activity (PAK4 (human); compound 1.0 µM) was 66%, the residual activity (PAK7 (human); compound 0.1 µM) was 89% and the residual activity (PAK7 (human); compound 1.0 µM) was 91%. For the same compound, the residual activity (PLK1 (human); compound 0.1 µM) was 91%, the residual activity (PLK1 (human); compound 1.0 µM) was 106% and the residual activity (PRKAA1 or PRKAA2 (rat); compound 0.1 µM) was 92%. It also gave a residual activity (PRKAA1 or PRKAA2 (rat); compound 1.0 µM) of 87%, a residual activity (PRKACA (human); compound 0.1 µM) of 97% and a residual activity (PRKACA (human); compound 1.0 µM) of 108%. The residual activity (PRKCA (human); compound 0.1 µM) was 89%, the residual activity (PRKCA (human); compound 1.0 µM) was 97% and the residual activity ([2]; compound 1.0 µM) was 105%. For the same compound, the residual activity (SYK (human); compound 0.1 µM) was 89% and the residual activity (SYK (human); compound 1.0 µM) was 72%.
